The results in this text go back to patent US12697343B2, “Intravenous istaroxime for the treatment of acute heart failure” (Seismic Pharmaceuticals Operations LLC, priority 2021, dated 2026).

Each structure is given as a SMILES string. Structures can show the parent of a compound that is named as a salt.

The test system of the experiment is patients hospitalized for acute heart failure (AHF). Nature of the experiment: Vital signs (systolic blood pressure, heart rate) during and after 24 h infusion. The experiment is classed as in vivo, human. An excerpt:
This study was a phase II, multicenter, randomized, double-blind, placebo-controlled, parallel group investigation, conducted at two sites in Italy and eight sites in China. All patients provided written informed consent. The study was approved by country regulatory authorities and by local institutional review boards. The trial is registered in the European Clinical Trials Database (EudraCT 2013-000540-26) and ClinicalTrials.gov (NCT02617446).
Patients were randomized 2:1 to istaroxime or placebo 24 h infusion and were enrolled in two sequential cohorts, the first with an istaroxime dose of 0.5 μg/kg/min and the second with an istaroxime dose of 1.0 μg/kg/min. At the end of cohort 1 enrollment, an independent Data Safety and Monitoring Board conducted an interim safety analysis of unblinded data before proceeding to cohort 2 enrollment. Inclusion criteria were: age ≥18 years, an ongoing hospitalization for AHF with dyspnoea at rest or minimal exertion and need for intravenous diuretic therapy (40 mg intravenous furosemide), SBP between 90 and 125 mmHg without signs or symptoms of peripheral hypoperfusion: LVEF ≤40%: intermediate to high E/e′ ratio by tissue Doppler echocardiography (10); brain natriuretic peptide (BNP) or N-terminal pro BNP (NT-proBNP) plasma levels ≥350 pg/mL or ≥1400 pg/mL, respectively, and presence of adequate echocardiographic windows. The main exclusion criteria were: concomitant or planned treatment with intravenous vasodilators, inotropes or vasopressors: treatment with oral digoxin (patients treated with digoxin within the last week could be randomized if the plasma concentration at screening was 0.5 ng/mL); acute coronary syndrome or stroke within the past 3 months: coronary artery bypass graft or percutaneous coronary intervention within the past month or planned in the next month: resting HR >120 bpm or <50 bpm: life-threatening ventricular arrhythmia or implantable cardioverter-defibrillator shock within the past month: fever 38° C.; serum creatinine 3.0 mg/dL or estimated glomerular filtration rate (eGFR) 30 mL/min/m2; serum potassium 5.3 mmol/L or 3.8 mmol/L; severe hepatic dysfunction.
The primary efficacy endpoint was the change from baseline to 24 h after the start of the infusion in the E/e ratio assessed by tissue Doppler echocardiography. Secondary endpoints included the change from baseline to 24 h of other echocardiography parameters: LVEF, left ventricular end-systolic and end-diastolic volumes, stroke volume index, E, A, E/A ratio, and S′: changes in dyspnoea by visual analogue scale (VAS) and in NT-proBNP from baseline to 24 h: proportion of patients with hospital readmissions or emergency visits for cardiovascular reasons by day 30; proportion of patients with episodes of in-hospital worsening heart failure to day 4, and length of stay. In-hospital worsening heart failure was defined by the need to increase the dose or reinitiate intravenous therapy with diuretics and/or other inotropic agents to day 4. Safety endpoints were assessed throughout the study and included: incidence of adverse events (AEs): change in vital signs and in 12-lead electrocardiographic (ECG) parameters: incidence of clinically or haemodynamically significant episodes of supraventricular or ventricular arrhythmias detected by continuous ECG monitoring: standard laboratory parameters: renal function: cardiac troponin T (cTnT): incidence of cTnT elevations, and mortality at day 30. Elevations in cTnT were considered significant if they were >50% or >20% from baseline values, for patients with cTnT below or above the 99% upper reference limit at baseline, respectively.
The study design included a 24 h screening period, a 24 h study drug infusion phase (day 1), a post-treatment phase (days 2-4), and a follow-up visit at day 30 (FIG. 5). Patients could be enrolled at any time after admission. The use of oral medications was permitted during the study with the exception of digoxin. […]

Take `C[C@]12CCC(=NOCCN)C[C@@H]1C(=O)C[C@@H]1[C@@H]2CC[C@]2(C)C(=O)CC[C@@H]12` [Istaroxime, (E,Z)-3-((2-aminoethoxy)imino)androstane-6,17-dione hydrochloride]: the “HR mean change from baseline” value by setting is: (0.5 μg/Kg/min, 3 hours) −4.21 bpm; (0.5 μg/Kg/min, 6 hours) −3.51 bpm; (0.5 μg/Kg/min, 12 hours) −4.59 bpm; (0.5 μg/Kg/min, 24 hours) −3.26 bpm; (0.5 μg/Kg/min, 48 hours) −0.37 bpm; (1.0 μg/Kg/min, 3 hours) −10.61 bpm. Also, the “HR mean change from baseline” value is, setting by setting: (1.0 μg/Kg/min, 6 hours) −8.89 bpm; (1.0 μg/Kg/min, 12 hours) −9.49 bpm; (1.0 μg/Kg/min, 24 hours) −9.61 bpm; (1.0 μg/Kg/min, 48 hours) 3.86 bpm. In addition, the “SBP mean change from baseline” value (0.5 μg/Kg/min, 3 hours) was determined as 1.49 mmHg; the “SBP mean change from baseline” value (0.5 μg/Kg/min, 6 hours) was determined as 2.92 mmHg; the “SBP mean change from baseline” value (0.5 μg/Kg/min, 12 hours) is on record as 3.13 mmHg; the “SBP mean change from baseline” value (0.5 μg/Kg/min, 24 hours) is 2.82 mmHg; the “SBP mean change from baseline” value (0.5 μg/Kg/min, 48 hours) is reported as −3.10 mmHg; the “SBP mean change from baseline” value (1.0 μg/Kg/min, 3 hours) is 7.63 mmHg. Moreover, the “SBP mean change from baseline” value runs as follows: (1.0 μg/Kg/min, 6 hours) 8.08 mmHg; (1.0 μg/Kg/min, 12 hours) 9.00 mmHg; (1.0 μg/Kg/min, 24 hours) 6.11 mmHg; (1.0 μg/Kg/min, 48 hours) −1.73 mmHg. Moreover, the “HR decreased from baseline by” value is, setting by setting: (0.5 μg/kg/min) “about 3 bpm”; (1.0 μg/kg/min, significant vs. placebo at 3 to 24 h) 8-9 bpm. Also, the “SBP increased from baseline by” value reads like this: (0.5 μg/kg/min) “about 3 mmHg”; (1.0 μg/kg/min, significant vs. placebo at 3 to 12 h) 6-8 mmHg.
